Results taken from patent US7638056B2, “Treatment of sewage sludge” (Rhodia Operations, priority 2003, dated 2009).
Like-named read-outs stand apart in the source and are kept apart here.

Test system: E. coli
Settings: for time/kill response over the first 6 hours contact time / contact time to total kill: FIG. 1; for contact time to total kill: sterile sludge, 22° C., about 10^8 cells per ml
From the text: The methodology adopted to evaluate biocide performance was by Quantitative Suspension Test (QST) using sterile anaerobic digester sludge as the QST medium, back-inoculated with E. coli cultures previously isolated from the sludge. In this way, a consistent chemical environment (sterile sludge) could be used in conjunction with a defined bacterial challenge. This enables the provision of consistency between tests.
The E. coli strains used in QST had been isolated from raw-sludge samples.
QST were performed as follows: • Sterile sludge (19 ml) was dispensed into sterile, screw-cap, plastics universal bottles of nominal 30 ml capacity. • To each sample was added 0.5 ml of a washed cell suspension of E. coli prepared from a 16-hour culture incubated at 44° C. in Tryptose Soy Broth, which had been centrifuged (14500 rpm for 10 min.) and re-suspended in sterile phosphate buffer (0.2M at pH 7.2). An inoculum of 0.5 ml was sufficient to provide a final cell concentration of about 10^8 per ml in 20 ml of QST medium. • Fresh stock solutions of the candidate treatment chemicals were prepared in sterile phosphate buffer (0.2M at pH 7.2) at concentrations such that when 0.5 ml was added to the QST medium (final volume 20 ml) the desired final concentration of biocide was achieved. • The QST medium was mixed thoroughly and held at 22° C. for the duration of the test. • At intervals during the test, the sludge was well mixed and samples (1.0 ml) were removed from the QST medium and inoculated into the first tube of a dilution series containing MacConkey broth supplemented with sodium thiosulphate (5.0 g/l), to inactivate any residual biocide carried into the dilution series.
The end point was scored as the highest dilution in the series to show a change in colour from purple to yellow and to have developed turbidity.
MacConkey Broth was selected as this medium contains the pH indicator Bromocresol Purple that changes from purple to yellow as the medium becomes acidic. This is a useful indirect indicator of microbial growth (organic acid production) where this cannot be scored by the development of turbidity in an initially clear medium. Because the sludge contains suspended solids the first 2 tubes of the dilution series instantaneously develop turbidity on the addition of the sludge. This precludes using turbidity alone as an indicator of microbial growth.

## N#CC(Br)(Br)C(N)=O [DBNPA, dibromo-nitrilo-propionamide, reference compound]
500 mg/l active ingredient, after 48 hours, FIG. 3
  log reduction in numbers: 2.5 log

## tetrakis(hydroxymethyl) phosphonium sulphate [Phosphonium Salt]
250 mg/l
  time/kill response over the first 6 hours contact time: fairly flat
  contact time to total kill: ≤ 48 h
500 mg/l
  time/kill response over the first 6 hours contact time: fairly flat
  contact time to total kill: ≤ 48 h
1000 mg/l
  time/kill response over the first 6 hours contact time: more progressive
  contact time to total kill: ≤ 24 h
Equal active-ingredient concentration of 500 mg/l, FIG. 3
  anti-microbial performance (Phosphonium Salt compared with DBNPA): superior
